# What was measured:
# PARP1 [1] = target: T1, PARP1 (Homo sapiens, UniProt P09874); test: DNA trapping capability of PARP1 (HTRF); assay type: biochemical
# T1 construct: purchased BPS 80501
# DLD-1 BRCA2^-/- = test: Anti-proliferative activity (CellTiter-Glo, 7 days), DLD-1 BRCA2-/-; assay type: cell-based, human; conditions: for IC50: Homo sapiens, DLD-1, 168 h, BRCA2-mutated, 7 days
# DLD-1 WT = test: Anti-proliferative activity (CellTiter-Glo, 7 days), DLD-1 WT; assay type: cell-based, human; conditions: for IC50: Homo sapiens, DLD-1, 168 h, BRCA2-normal, 7 days
# Procedure: The anti-proliferation experiment of the compounds on tumour cells adopted the most widely used ATP concentration-based detection method at present. MDA-MB-231 and MDA-MB-436 cell lines were obtained from ATCC, DLD-1 human colourectal adenocarcinoma epithelial cells and DLD-1 BRCA2^-/- cells were obtained from Horizon, and the cells were revived. After the cells were stable, the cells were collected. When the viable cell count exceeded 90%, 450-500 cells were seeded into a 384-well plate. The next day, the example compounds with serially diluted concentrations were added. Only buffer was added to the Max well, and 50 µM AZD2281 was added to the Min well. The plate was incubated for 7 days, and on the eighth day, CellTiter-Glo® reagent (Promega, G7573) was added. The plate was incubated at room temperature for 30 minutes, and the values were read on Envision (PE). The inhibition rate was calculated using the fluorescence values from the Max and Min wells, and the dose-response curve was fitted using the analysis software GraphPad Prism 5 to obtain the IC50 value of each compound for the enzyme activity.
# PARP1 [2] = target: T1, PARP1; test: Inhibition of PARP1 enzyme activity (chemiluminescence); assay type: biochemical
# [3] = Pharmacokinetic study of single administration in mice; assay type: in vivo; conditions: CD-1 mice
# Procedure: Male CD-1 mice were used as test animals. The plasma drug concentrations of the compounds were determined and the pharmacokinetic parameters were evaluated after a single administration. Healthy adult male CD-1 mice were selected. The candidate compound was added to 10% DMSO, vortexed and sonicated. After complete dissolution, 30% PEG400 was added, followed by vortexing and sonication, and 60% double-distilled water was added to prepare a clear solution for later use. After the mice were intravenously injected at a dose of 2 mg/kg and orally administered at a dose of 10 mg/kg, whole blood was collected at 5 minutes, 15 minutes, 30 minutes, 1 hour, 2 hours, 4 hours, 8 hours, and 24 hours after administration to prepare plasma. After sample treatment, the drug concentration was analysed by LC-MS/MS method, and the pharmacokinetic parameters were calculated.
# PARP2 [4] = target: T2, PARP2 (Homo sapiens, UniProt Q9UGN5); test: DNA trapping capability of PARP2 (HTRF); assay type: biochemical
# T2 construct: purchased BPS 80502
# T2 sequence (Q9UGN5 whole entry): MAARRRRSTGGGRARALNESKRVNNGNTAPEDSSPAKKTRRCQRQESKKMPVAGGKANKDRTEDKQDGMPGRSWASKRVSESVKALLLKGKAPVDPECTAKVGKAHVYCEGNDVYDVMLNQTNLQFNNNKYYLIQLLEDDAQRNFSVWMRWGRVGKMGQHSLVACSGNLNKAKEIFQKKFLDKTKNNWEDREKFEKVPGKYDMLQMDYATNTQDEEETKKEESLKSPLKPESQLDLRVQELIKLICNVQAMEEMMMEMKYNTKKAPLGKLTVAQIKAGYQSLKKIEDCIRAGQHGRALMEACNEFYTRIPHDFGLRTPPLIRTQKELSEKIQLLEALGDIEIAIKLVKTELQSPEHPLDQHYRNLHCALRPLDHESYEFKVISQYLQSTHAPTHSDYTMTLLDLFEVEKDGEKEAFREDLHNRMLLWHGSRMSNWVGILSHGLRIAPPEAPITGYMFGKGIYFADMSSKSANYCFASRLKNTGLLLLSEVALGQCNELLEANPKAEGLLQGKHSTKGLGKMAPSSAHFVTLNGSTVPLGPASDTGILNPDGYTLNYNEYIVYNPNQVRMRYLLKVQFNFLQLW
# A549 WT = test: Cellular PARylation inhibition, high-content imaging, A549 WT; assay type: cell-based; conditions: Homo sapiens, PARylation at the cellular level
# Procedure: The inhibitory effect of the compounds on PARP1/PARP2 enzyme activity at the cellular level was detected using high-content imaging. A549 WT, PARP1-KO and PARP2-KO cell lines were established in-house, and the cells were revived. After the cells were stable, a sufficient number of cells were collected and 100 µL of the cell suspension was seeded into a 96-well plate. The next day, the example compounds with serially diluted concentrations were added. […] The plate was incubated for 1.5 hours (A549 WT and PARP2-KO cell lines) or 2 hours (PARP1-KO cell line). After removing the supernatant, 0.4 mM H2O2 was added and incubation was carried out for 10 minutes (A549 WT and PARP2-KO cell lines) or 1.5 mM H2O2 was added and incubation was carried out for 15 minutes (PARP1-KO cell line) to induce extensive cellular DNA damage. After removing the supernatant, the cells were fixed with 4% paraformaldehyde for 20 minutes, followed by treatment with 0.5% Triton X-100 for 20 minutes to increase the permeability of the cell membrane. After that, the cells were incubated with 3% BSA for 1 hour to prevent non-specific binding. […] The cell nuclei were stained for 30 minutes by adding 50 µL DAPI (invitrogen, R37606). After washing twice with PBS, images were acquired on OPERETTA CLS™ (PE) by scanning the cells under a 20x water objective lens in non-confocal mode, with 5 fields of view captured per well. […] The inhibition rate was calculated using the fluorescence values from the Max and Min wells, and the dose-response curve was fitted using the analysis software GraphPad Prism 5 to obtain the IC50 value of each compound for the enzyme activity.
# A549 PARP1-KO cell lines = test: Cellular PARylation inhibition, high-content imaging, PARP1-KO; assay type: cell-based; conditions: Homo sapiens, A549; PARylation at the cellular level
# MDA-MB-436 = test: Anti-proliferative activity (CellTiter-Glo, 7 days), MDA-MB-436; assay type: cell-based, human; conditions: for IC50: Homo sapiens, MDA-MB-436, 168 h, BRCA1-mutated, 7 days, read-out: MDA-MB-436 IC50
# MDA-MB-231 = test: Anti-proliferative activity (CellTiter-Glo, 7 days), MDA-MB-231; assay type: cell-based, human; conditions: for IC50: Homo sapiens, MDA-MB-231, 168 h, BRCA1-normal, 7 days, read-out: MDA-MB-231 IC50
# PARP2 [5] = target: T2, PARP2; test: Inhibition of PARP2 enzyme activity (chemiluminescence); assay type: biochemical
# A549 PARP2-KO cell line = test: Cellular PARylation inhibition, high-content imaging, PARP2-KO; assay type: cell-based
# [6] = tested on: MDA-MB-436 xenograft tumour; test: Anti-tumour effect in MDA-MB-436 subcutaneous xenograft tumour mouse model; assay type: in vivo; conditions: same dose, MDA-MB-436 xenograft mice
# Procedure: Example 4 was further verified in vivo. A subcutaneous xenograft tumour mouse model of the BRCA1-mutated MDA-MB-436 cell line was selected. Human breast cancer MDA-MB-436 cells (ATCC, HTB-130) were cultured in vitro in a monolayer, with the culture conditions of L-15 medium supplemented with 10% foetal bovine serum, 1% penicillin-streptomycin solution, and 0.01 mg/mL bovine insulin, and cultured at 37°C in a CO2-free incubator. The cells were routinely digested and passaged twice a week using trypsin-EDTA. When the cell confluency reached 80%-90%, the cells were harvested and counted, and 0.2 mL of 1 × 10^7 MDA-MB-436 cells were subcutaneously inoculated on the right back of each mouse (PBS : Matrigel = 1 : 1). When the mean tumour volume reached 152 mm^3, the mice were grouped for drug administration. The day of drug administration was set as Day 0. The tumour volume and the body weight of the mice were monitored twice a week, and the drug treatment lasted for 28 days.
# The diameter of the tumour was measured with a vernier calliper. The tumour volume is calculated according to the following equation: V = 0.5a × b^2, where a and b represent the long and short diameters of the tumour, respectively. The tumour inhibition effect of the compound was evaluated by relative tumour shrinkage rate Reg%. Reg% reflects the rate of tumour volume reduction after treatment. Reg% = (V0-Vt)/V0×100%, where V0 is the tumour volume measured at the time of grouping for drug administration (i.e., d0), and Vt is the tumour volume measured at a certain time point.
# The criteria for compound response in the mouse model were adapted from mRECIST (Modified Response Evaluation Criteria in Solid Tumours) (Gao et al, 2015), and are specifically defined as follows: [formula] • PR (Partial Response): BestResponse < −50% and BestAvgResponse < −20%; [formula] • SD (Stable Disease): BestResponse < 35% and BestAvgResponse < 30%; [formula] • PD (Progressive Disease): other cases; • ORR% is the sum of the proportions of Complete Response (CR) and Partial Response (PR).
# Statistical analysis was performed using Prism software, including the mean value (Mean) and standard error of the mean (SEM) of the tumour volume at each time point for each group. For the statistical analysis of TV, the original TV data from each measurement were used to compare the differences between groups. Two-way ANOVA was applied to include the two factors, i.e., drug administration and time for analysis, followed by the Tukey's multiple comparisons test, wherein p < 0.05 was considered statistically significant.
# PARP6 = target: T3, PARP6 (Homo sapiens, UniProt Q2NL67); test: Inhibition of PARP6 enzyme activity (chemiluminescence); assay type: biochemical
# T3 construct: purchased BPS 80506
# T3 sequence (Q2NL67 whole entry): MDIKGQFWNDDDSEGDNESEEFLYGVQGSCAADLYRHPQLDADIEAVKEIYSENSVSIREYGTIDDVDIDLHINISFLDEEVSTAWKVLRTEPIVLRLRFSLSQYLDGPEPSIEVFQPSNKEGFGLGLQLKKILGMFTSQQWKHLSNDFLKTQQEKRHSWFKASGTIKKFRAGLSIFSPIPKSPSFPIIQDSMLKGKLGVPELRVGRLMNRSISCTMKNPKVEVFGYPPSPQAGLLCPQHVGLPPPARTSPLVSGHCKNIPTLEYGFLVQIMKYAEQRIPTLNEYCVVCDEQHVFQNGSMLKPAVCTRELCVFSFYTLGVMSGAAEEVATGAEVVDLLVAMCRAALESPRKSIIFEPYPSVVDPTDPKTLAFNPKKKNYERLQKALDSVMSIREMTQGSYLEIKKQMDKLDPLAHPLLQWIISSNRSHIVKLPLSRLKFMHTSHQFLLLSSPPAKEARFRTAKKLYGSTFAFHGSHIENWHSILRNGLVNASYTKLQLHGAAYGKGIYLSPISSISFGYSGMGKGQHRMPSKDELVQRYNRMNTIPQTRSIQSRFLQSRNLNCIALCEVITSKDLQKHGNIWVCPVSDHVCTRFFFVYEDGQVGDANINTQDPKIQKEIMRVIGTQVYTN
# PARP11 = target: T4, PARP11 (Homo sapiens, UniProt Q9NR21); test: Inhibition of PARP11 enzyme activity (chemiluminescent assay kit); assay type: biochemical
# T4 construct: purchased BPS 80511
# T4 sequence (Q9NR21 1-338): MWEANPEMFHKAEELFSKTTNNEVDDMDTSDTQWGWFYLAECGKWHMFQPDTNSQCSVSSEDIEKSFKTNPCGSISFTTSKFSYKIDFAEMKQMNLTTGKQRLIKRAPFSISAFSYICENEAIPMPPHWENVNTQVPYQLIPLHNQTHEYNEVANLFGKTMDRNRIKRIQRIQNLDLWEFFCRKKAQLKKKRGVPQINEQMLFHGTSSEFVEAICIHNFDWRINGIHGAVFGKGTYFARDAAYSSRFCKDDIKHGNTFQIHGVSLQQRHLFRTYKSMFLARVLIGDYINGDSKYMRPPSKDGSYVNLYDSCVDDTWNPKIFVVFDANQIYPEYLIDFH
# [7] = male, mouse, plasma, IV, 2 mg/kg
# [8] = male, mouse, plasma, PO, 10 mg/kg
# [9] = ratio relative to the PARP1 enzyme activity
# T1 sequence (P09874 whole entry): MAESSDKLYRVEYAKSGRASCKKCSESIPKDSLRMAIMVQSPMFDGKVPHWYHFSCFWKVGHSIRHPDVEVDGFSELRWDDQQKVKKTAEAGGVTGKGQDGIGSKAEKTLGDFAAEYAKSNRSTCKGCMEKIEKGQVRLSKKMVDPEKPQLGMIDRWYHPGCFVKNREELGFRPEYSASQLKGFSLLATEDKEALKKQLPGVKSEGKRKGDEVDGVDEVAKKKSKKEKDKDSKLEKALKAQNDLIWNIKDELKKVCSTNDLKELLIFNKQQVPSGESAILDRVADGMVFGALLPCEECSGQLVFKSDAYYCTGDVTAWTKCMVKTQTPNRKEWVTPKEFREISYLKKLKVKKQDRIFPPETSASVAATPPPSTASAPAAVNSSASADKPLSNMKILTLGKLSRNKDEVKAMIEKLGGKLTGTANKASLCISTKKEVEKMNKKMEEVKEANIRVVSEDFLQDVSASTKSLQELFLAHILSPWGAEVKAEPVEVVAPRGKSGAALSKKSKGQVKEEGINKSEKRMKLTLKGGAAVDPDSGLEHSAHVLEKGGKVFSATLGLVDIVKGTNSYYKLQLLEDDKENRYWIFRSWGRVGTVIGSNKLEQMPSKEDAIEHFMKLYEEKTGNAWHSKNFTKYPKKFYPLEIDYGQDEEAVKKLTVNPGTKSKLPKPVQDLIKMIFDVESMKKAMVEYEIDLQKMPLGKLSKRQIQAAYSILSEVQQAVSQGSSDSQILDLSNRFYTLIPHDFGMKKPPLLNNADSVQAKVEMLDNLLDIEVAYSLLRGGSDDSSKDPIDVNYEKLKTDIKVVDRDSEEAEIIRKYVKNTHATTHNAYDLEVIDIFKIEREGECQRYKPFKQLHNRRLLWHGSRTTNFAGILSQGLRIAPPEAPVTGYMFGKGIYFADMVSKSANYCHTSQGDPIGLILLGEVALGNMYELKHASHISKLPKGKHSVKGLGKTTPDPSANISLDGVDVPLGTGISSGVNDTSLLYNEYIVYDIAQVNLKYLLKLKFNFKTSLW
smiles,measurement,setting,value
"CCc1c(N)c2ncc(CN3CCN(c4ccc(C(=O)NC)nc4)CC3)cc2[nH]c1=O [Example 1, 5-(4-((8-Amino-7-ethyl-6-oxo-5,6-dihydro-1,5-naphthyridin-3-yl)methyl)piperazin-1-yl)-N-methylpicolinamide]",EC50,PARP1 [1],1.78 nM
same,BRCA2 mutation/WT selectivity fold,DLD-1 BRCA2^-/-; DLD-1 WT vs DLD-1 BRCA2^-/-,>538 fold
same,IC50,DLD-1 BRCA2^-/-,18.6 nM
same,inhibition on cell proliferation at the highest concentration,"DLD-1 WT; BRCA2-normal DLD-1 cell line, 10 µM",no detectable inhibition
same,IC50,DLD-1 WT,> 10000 nM
same,IC50,PARP1 [2],0.49 nM
same,PARP1/2 selectivity fold,PARP1 [2]; PARP2 vs PARP1,108 fold
same,Exposure inf,"[3]; IV, 2 mg/kg",38.222 µg·h/mL
same,Exposure last,"[3]; IV, 2 mg/kg",38.128 µg·h/mL
same,Exposure inf,"[3]; PO, 10 mg/kg",191.246 µg·h/mL
same,Exposure last,"[3]; PO, 10 mg/kg",189.56 µg·h/mL
same,Peak concentration,"[3]; PO, 10 mg/kg",15700 ng/mL
same,Time to peak,"[3]; PO, 10 mg/kg",2 h
same,clearance,[3]; [7],0.872 mL/min/kg
same,half-life,[3]; [7],2.81 h
same,Vd,"[3]; male, mouse, plasma, IV, 2 mg/kg, read-out: Apparent volume of distribution",0.218 L/kg
same,bioavailability,[3]; [8],100%
same,half-life,[3]; [8],3.51 h
same,EC50,PARP2 [4],168 nM
same,IC50,A549 WT,14.4 nM
same,IC50,A549 PARP1-KO cell lines,47700 nM
same,IC50,MDA-MB-436,16.4 nM
same,BRCA1 mutation/WT selectivity fold,MDA-MB-436; MDA-MB-231 vs MDA-MB-436,>608 fold
same,inhibition on cell proliferation at the highest concentration,"MDA-MB-231; BRCA1-normal MDA-MB-231 cell line, 10 µM",no detectable inhibition
same,IC50,MDA-MB-231,> 10000 nM
same,IC50,PARP2 [5],52.8 nM
same,IC50,"A549 PARP2-KO cell line; Homo sapiens, A549, read-out: PARP2-KO IC50",72.2 nM
same,PARP1 KO/PARP2 KO selectivity fold,A549 PARP2-KO cell line; PARylation at the cellular level,660 fold
"CCc1cc2ncc(CN3CCN(c4ccc(C(=O)NC)nc4)CC3)cc2[nH]c1=O [AZD5305, reference compound]",IC50,DLD-1 BRCA2^-/-,2.12 nM
same,IC50,DLD-1 WT,> 10000 nM
same,IC50,A549 WT,2.2 nM
same,IC50,MDA-MB-436,1.94 nM
same,IC50,MDA-MB-231,> 10000 nM
same,tumour regression,[6]; FIG. 3,promoted tumour regression
same,ORR,[6]; treatment 28 days,20%
same,IC50,PARP6; enzyme activity,8660 nM
same,PARP6 multiple vs PARP1,PARP6; [9],"20,619"
same,IC50,PARP11; enzyme activity,19.4 nM
same,PARP11 multiple vs PARP1,PARP11; [9],46

# — patent publication EP4620956A1, “PARP1 INHIBITORS” (Zhejiang Yangli Pharmaceutical Technology Co., Ltd., priority 2022, dated 2024)
